The molecules below were run against T1, VEGF receptor KDR (Homo sapiens, UniProt P35968) (assay: In vitro receptor tyrosine kinase assay (DELFIA), VEGF receptor KDR). Conditions: GST-VEGFR2 806-1356, 0.6 uM ATP; read-out: VEGFR IC50.
T1 construct: made in house; host or cells: Sf9 cells (Spodoptera frugiperda), baculovirus
Format: biochemical
Source text: In the case of VEGF receptor KDR a 1.6-kb cDNA corresponding to the catalytic domain of VEGFR2 or KDR (Genbank accession number AF035121 amino acid 806 to 1356) is cloned into the Pst I site of the pDEST20 Gateway vector (Invitrogen) for the production of a GST-tagged version of that enzyme.
The GST-VEGFR2806-1356 protein is expressed in Sf9 cells (Spodoptera frugiperda) upon infection with recombinant baculovirus construct.
The supernatant is loaded onto a GST-agarose column (Sigma) equilibrated with PBS pH 7.3. Following a four column volume (CV) wash with PBS pH 7.3+1% Triton X-100 and 4 CV wash with buffer B (50 mM Tris pH 8.0, 20% glycerol and 100 mM NaCl), bound proteins are step eluted with 5 CV of buffer B supplemented with 5 mM DTT and 15 mM glutathion. […] Final GST-VEGFR2806-1356 protein preparations concentrations are about 0.7 mg/ml with purity approximating 70%.

T1 sequence (P35968 806-1356): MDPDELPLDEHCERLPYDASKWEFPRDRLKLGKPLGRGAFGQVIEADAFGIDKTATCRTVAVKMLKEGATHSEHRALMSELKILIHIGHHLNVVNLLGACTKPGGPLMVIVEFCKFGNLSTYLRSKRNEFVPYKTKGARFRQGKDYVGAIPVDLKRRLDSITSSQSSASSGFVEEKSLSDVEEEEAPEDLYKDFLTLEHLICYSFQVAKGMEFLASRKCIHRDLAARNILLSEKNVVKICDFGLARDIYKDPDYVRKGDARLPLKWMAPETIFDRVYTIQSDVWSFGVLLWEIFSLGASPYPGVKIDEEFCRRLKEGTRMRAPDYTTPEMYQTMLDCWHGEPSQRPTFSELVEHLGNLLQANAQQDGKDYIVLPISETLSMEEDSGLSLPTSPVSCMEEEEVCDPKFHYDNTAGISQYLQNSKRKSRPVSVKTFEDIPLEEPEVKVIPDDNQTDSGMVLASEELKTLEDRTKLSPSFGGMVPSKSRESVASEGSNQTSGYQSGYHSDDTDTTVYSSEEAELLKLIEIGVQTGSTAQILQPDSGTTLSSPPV

Row | SMILES | IC50 [nM]
1 | COCCNCc1ccc(-c2cc3nccc(Oc4ccc(NC(=S)NC(=O)Cc5ccc(F)cc5)cc4F)c3s2)o1 | < 250
2 | CN(C)CCOC(=O)N1CC=C(c2cc3nccc(Oc4ccc(NC(=S)NC(=O)Cc5ccccc5)cc4F)c3s2)CC1 | < 250
3 | CN(C)CCOC(=O)N1CC=C(c2cc3nccc(Oc4ccc(NC(=O)CC(=O)N(C)c5ccccc5)cc4F)c3s2)CC1 | < 250

Other lines, results leading:

Row | IC50 [nM] | SMILES
4 | < 250 | COCCNCc1ccc(-c2cc3nccc(Oc4ccc(NC(=O)NC(=O)Cc5ccccc5OC)cc4F)c3s2)cc1
5 | < 250 | COCCNC(=O)c1ccc(-c2cc3nccc(Oc4ccc(NC(=S)NC(=O)Cc5ccccc5)cc4F)c3s2)cc1

What follows are molecules tested on A549 cells (assay: Wound healing assay in A549 cells (HGF-stimulated)). Conditions: Homo sapiens, last dose that inhibited gap closing by more than 25%, 24 h, read-out: A549 WOUND_HEALING IC50.
Format: cell-based
Protocol: Wound healing assay in A549 cells. A549 cells (ATCC) are seeded in DMEM low glucose medium complemented with 10% FBS into 24-well plates at a density of 7.5×10^4 cells/well and grown to confluence (48 h). Inhibitors were added to the medium at a range of doses (0.00032-10 uM) for 3 h at which point a gap is introduced by scraping cells with a P1000 pipette tip. Cells are then stimulated to migrate by the addition of HGF (in the form of conditioned medium from 293T cells over-expressing the human HGF gene) and the culture is continued for 24 h. […] For the purpose of standardization, a control is carried on every assay plates.

Row | SMILES | IC50 [nM]
6 | COCCNCc1ccc(-c2cc3nccc(Oc4ccc(NC(=S)NC(=O)Cc5ccc(F)cc5)cc4F)c3s2)o1 | > 1000
7 | CN(C)CCOC(=O)N1CC=C(c2cc3nccc(Oc4ccc(NC(=S)NC(=O)Cc5ccccc5)cc4F)c3s2)CC1 | < 250
8 | CN(C)CCOC(=O)N1CC=C(c2cc3nccc(Oc4ccc(NC(=O)CC(=O)N(C)c5ccccc5)cc4F)c3s2)CC1 | > 1000

Results, then the molecule that gave them:

Row | IC50 [nM] | SMILES
9 | 500 to 1000 | COCCNCc1ccc(-c2cc3nccc(Oc4ccc(NC(=O)NC(=O)Cc5ccccc5OC)cc4F)c3s2)cc1
10 | > 1000 | COCCNC(=O)c1ccc(-c2cc3nccc(Oc4ccc(NC(=S)NC(=O)Cc5ccccc5)cc4F)c3s2)cc1

Each molecule was assayed on DU145 cells (assay: Scatter assay in DU145 cells (HGF-stimulated)). Conditions: Homo sapiens, DU-145, last dose that created an inhibitory effect on scattering, 24 h, read-out: DU145 SCATT. INHIB IC50.
Format: cell-based
Protocol: Scatter assays in DU145. The scatter assay is performed as described previously (Miura H, Nishimura K, Tsujimura A, Matsumiya K, Matsumoto K, Nakamura T, et al. Effects of hepatocyte growth factor on E-cadherin-mediated cell-cell adhesion in DU145 prostate cancer cells. Urology 2001; 58(6):1064-9) for DU145 prostate carcinoma cells with the indicated modifications. In brief, DU145 cells (ATCC) are seeded in 24-well plates at a density of 7×10^3 cells/well in MEM medium complemented with 10% FBS and cultured for 48 h, to allow the formation of small compact colonies of cells. Inhibitors are subsequently added at a range of doses (0.00032-10 uM) for 3 h. Cells are then stimulated to migrate by the addition of HGF (in the form of conditioned medium from 293T cells over-expressing the human HGF gene) and the culture is continued for another 24 h. The IC50 values is defined as the last dose that created an inhibitory effect on scattering. For the purpose of standardization a control is carried on every test plates for the DU145 scattering assays.

Row | SMILES | IC50 [nM]
11 | COCCNCc1ccc(-c2cc3nccc(Oc4ccc(NC(=S)NC(=O)Cc5ccc(F)cc5)cc4F)c3s2)o1 | > 1000
12 | CN(C)CCOC(=O)N1CC=C(c2cc3nccc(Oc4ccc(NC(=S)NC(=O)Cc5ccccc5)cc4F)c3s2)CC1 | < 250
13 | CN(C)CCOC(=O)N1CC=C(c2cc3nccc(Oc4ccc(NC(=O)CC(=O)N(C)c5ccccc5)cc4F)c3s2)CC1 | 250 to 500

Further lines, results first:

Row | IC50 [nM] | SMILES
14 | > 1000 | COCCNCc1ccc(-c2cc3nccc(Oc4ccc(NC(=O)NC(=O)Cc5ccccc5OC)cc4F)c3s2)cc1
15 | 250 to 500 | COCCNC(=O)c1ccc(-c2cc3nccc(Oc4ccc(NC(=S)NC(=O)Cc5ccccc5)cc4F)c3s2)cc1

What follows are molecules tested against T2, c-Met (Homo sapiens, UniProt P08581) (assay: Inhibition of c-Met phosphorylation in MKN45 cells (direct ELISA)). Conditions: 3 h treatment, read-out: CMET ELISA IN MKN45 IC50.
T2 construct: endogenous in cells; host or cells: MKN45 gastric carcinoma cells
T2 sequence (P08581 25-1390): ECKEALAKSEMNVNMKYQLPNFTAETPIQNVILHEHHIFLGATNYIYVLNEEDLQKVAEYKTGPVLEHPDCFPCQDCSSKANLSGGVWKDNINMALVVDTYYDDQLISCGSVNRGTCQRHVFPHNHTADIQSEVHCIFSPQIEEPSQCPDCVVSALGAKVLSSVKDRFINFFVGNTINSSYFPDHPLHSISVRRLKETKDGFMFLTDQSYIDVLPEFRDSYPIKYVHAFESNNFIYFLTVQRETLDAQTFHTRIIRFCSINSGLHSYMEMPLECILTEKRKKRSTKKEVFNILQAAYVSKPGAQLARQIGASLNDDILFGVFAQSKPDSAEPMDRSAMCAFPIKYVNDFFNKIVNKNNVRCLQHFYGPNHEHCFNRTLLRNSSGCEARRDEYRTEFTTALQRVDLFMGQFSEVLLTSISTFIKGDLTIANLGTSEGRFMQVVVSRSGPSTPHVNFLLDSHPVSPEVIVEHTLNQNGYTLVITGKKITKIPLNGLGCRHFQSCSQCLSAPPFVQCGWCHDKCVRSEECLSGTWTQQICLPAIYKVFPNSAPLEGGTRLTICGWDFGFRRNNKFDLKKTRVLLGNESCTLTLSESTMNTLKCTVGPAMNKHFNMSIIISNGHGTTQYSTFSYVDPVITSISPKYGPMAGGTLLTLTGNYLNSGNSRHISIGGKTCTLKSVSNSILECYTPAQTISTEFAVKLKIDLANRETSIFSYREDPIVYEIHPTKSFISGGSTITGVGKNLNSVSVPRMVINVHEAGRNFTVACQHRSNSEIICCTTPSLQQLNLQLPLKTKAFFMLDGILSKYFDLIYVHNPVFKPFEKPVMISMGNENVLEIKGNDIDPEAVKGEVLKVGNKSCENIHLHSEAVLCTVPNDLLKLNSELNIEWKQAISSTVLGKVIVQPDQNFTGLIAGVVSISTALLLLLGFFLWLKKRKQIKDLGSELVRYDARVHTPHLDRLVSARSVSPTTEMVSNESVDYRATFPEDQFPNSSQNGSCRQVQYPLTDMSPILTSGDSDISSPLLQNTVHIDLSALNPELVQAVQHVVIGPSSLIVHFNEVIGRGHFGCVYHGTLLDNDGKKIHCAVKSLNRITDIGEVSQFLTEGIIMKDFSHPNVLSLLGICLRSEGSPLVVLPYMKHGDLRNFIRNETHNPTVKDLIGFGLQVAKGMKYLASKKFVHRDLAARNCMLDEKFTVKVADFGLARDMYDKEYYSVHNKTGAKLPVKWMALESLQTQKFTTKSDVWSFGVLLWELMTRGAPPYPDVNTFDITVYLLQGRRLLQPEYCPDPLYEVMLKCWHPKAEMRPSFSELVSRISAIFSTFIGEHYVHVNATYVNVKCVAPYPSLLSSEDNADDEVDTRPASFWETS
Format: cell-based
Source text: The following assay is used to determine inhibition of c-Met phosphorylation.
The c-Met receptor is expressed in numerous cancer cell lines derived from tumors of epithelial origin. In MKN45 gastric carcinoma cells the c-Met gene is amplified, resulting in several-fold overexpression of the receptor and its constitutive activation. For this reason constitutively high levels of ERK1/2 are also detected in these cells, independently of HGF-added stimulation (Smolen G A, Sordella R, Muir B, Mohapatra G, Barmettler A, Archibald H, et al. Amplification of MET may identify a subset of cancers with extreme sensitivity to the selective tyrosine kinase inhibitor PHA-665752. Proc Natl Acad Sci USA 2006). We have developed a sensitive method to follow c-Met phosphorylation in these cells. In previous studies with earlier generation c-Met inhibitors, we established that the IC50s for the inhibition of c-Met phosphorylation were identical using this novel ELISA approach and standard western blot procedure, with antibodies directed against the activating autocatalysis tyrosine residues of c-MET (Tyr Y1230-34-35).
Cell treatments: MKN45 cells are seeded into wells of 96-well plates at a density of 3×10^4 cells/well in RPMI medium supplemented with 10% FBS. HA-TPR-RON expressing 293T (clone 18) cells are seeded into wells of 96-well plates at a density of 3×10^4 cells/well in DMEM medium supplemented with 10% FBS. Cells are grown for 48 h prior to treatments with compounds of interest. Inhibitors are added to the medium in triplicate wells at the indicated doses. After 3 h of treatment, media is aspirated and cells are lysed by one freeze-thaw cycle in 50 μL/well hypotonic lysis buffer (25 mM HEPES pH 7.5, 10 mM NaCl with 1 mM 4-(2-aminoethyl)benzenesulfonyl fluoride hydrochloride, 200 μM sodium orthovanadate, 1 mM sodium fluoride, 10 μg/mL of leupeptin, 10 μg/mL of aprotinin/mL, 1 μg/mL of pepstatin and 50 μg/mL Na-p-tosyl-L-lysine chloromethyl ketone hydrochloride.
Detection of phosphorylated c-Met by direct ELISA: Lysate samples (5 μL) from wells of treatment plates are transferred to 80 μL of binding buffer (25 mM HEPES pH 7.5, 200 mM NaCl) in wells of high binding white polysterene 96-well plates (Corning). After an overnight protein binding incubation at 4° C., lysates are aspirated and wells are blocked for 1 h at 37° C. in TBST supplemented with 5% BSA. Plates are incubated with the primary antibodies anti-phospho-Tyrosine (Millipore, 4G10) diluted 1/15000 in TBST supplemented with 5% BSA for 1 h at room temperature. Plates are washed 3 times on a plate washer (SkanWasher, Molecular Devises), and incubated with the reporter antibody […] (Sigma) diluted 1/15000 in TBST supplemented with 5% BSA, for 1 h at room temperature. Plates are washed 3 times with TBST using on a plate washer and subsequently incubated with chemiluminescent substrate solution (ECL, Roche). Luminescence signal is captured on a Polar Star Optima apparatus (BMG LabTech).
Average values of the triplicate samples are used to prepare IC50 curves using a 4-parameter fit model. These curves are calculated using, for example, GraFit 5.0 software. For assay standardization purpose, an internal control is included on each experimental test plate.

Row | SMILES | IC50 [nM]
16 | COCCNCc1ccc(-c2cc3nccc(Oc4ccc(NC(=S)NC(=O)Cc5ccc(F)cc5)cc4F)c3s2)o1 | < 250
17 | CN(C)CCOC(=O)N1CC=C(c2cc3nccc(Oc4ccc(NC(=S)NC(=O)Cc5ccccc5)cc4F)c3s2)CC1 | < 250
18 | CN(C)CCOC(=O)N1CC=C(c2cc3nccc(Oc4ccc(NC(=O)CC(=O)N(C)c5ccccc5)cc4F)c3s2)CC1 | < 250

The remaining lines, values ahead:

Row | IC50 [nM] | SMILES
19 | 500 to 1000 | COCCNCc1ccc(-c2cc3nccc(Oc4ccc(NC(=O)NC(=O)Cc5ccccc5OC)cc4F)c3s2)cc1
20 | < 250 | COCCNC(=O)c1ccc(-c2cc3nccc(Oc4ccc(NC(=S)NC(=O)Cc5ccccc5)cc4F)c3s2)cc1

What follows are molecules tested against recombinant human c-Met/HGF receptor (Homo sapiens, UniProt P08581) (assay: In vitro receptor tyrosine kinase assay (DELFIA), c-Met/HGF receptor). Conditions: not given.
Sequence of recombinant human c-Met/HGF receptor (P08581 1078-1337): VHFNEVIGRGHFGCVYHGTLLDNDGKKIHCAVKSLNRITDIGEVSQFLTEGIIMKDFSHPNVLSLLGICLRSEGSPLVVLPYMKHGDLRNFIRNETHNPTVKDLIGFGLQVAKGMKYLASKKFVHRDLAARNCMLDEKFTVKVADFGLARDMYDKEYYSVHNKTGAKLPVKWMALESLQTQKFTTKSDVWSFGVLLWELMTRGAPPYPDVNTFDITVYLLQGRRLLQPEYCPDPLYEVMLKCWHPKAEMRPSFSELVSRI

Row | SMILES | IC50 [nM]
21 | COCCNCc1ccc(-c2cc3nccc(Oc4ccc(NC(=S)NC(=O)Cc5ccc(F)cc5)cc4F)c3s2)o1 | < 250
22 | CN(C)CCOC(=O)N1CC=C(c2cc3nccc(Oc4ccc(NC(=S)NC(=O)Cc5ccccc5)cc4F)c3s2)CC1 | < 250
23 | CN(C)CCOC(=O)N1CC=C(c2cc3nccc(Oc4ccc(NC(=O)CC(=O)N(C)c5ccccc5)cc4F)c3s2)CC1 | < 250

The next lines start with the values.

Row | IC50 [nM] | SMILES
24 | < 250 | COCCNCc1ccc(-c2cc3nccc(Oc4ccc(NC(=O)NC(=O)Cc5ccccc5OC)cc4F)c3s2)cc1
25 | < 250 | COCCNC(=O)c1ccc(-c2cc3nccc(Oc4ccc(NC(=S)NC(=O)Cc5ccccc5)cc4F)c3s2)cc1

From patent publication US8389541B2, “Inhibitors of protein tyrosine kinase activity” (MethylGene Inc., priority 2007, dated 2013)
